{"source": "paper PMC9320886", "about": "“Daily Intraperitoneal Administration of Rosiglitazone Does Not Improve Lung Function or Alveolarization in Preterm Rabbits Exposed to Hyperoxia” (Pharmaceutics, 2022)", "key": {"[1]": {"system": "neonatal rats exposed to hyperoxia", "set-up": "method as in PMID 19304912", "details": "hyperoxia (95% O2), 1 or 3 mg/kg for 7 days; cited from earlier work"}, "[2]": {"system": "preterm rabbits exposed to hyperoxia", "assay": "quantification of blood lipid levels", "type": "in vivo, rabbit", "experimental": "Whole blood samples from pups in the RGZ (1 and 10 mg/kg groups) and control groups (n = 6 per group) were obtained though cardiac puncture. Briefly, a 22G needle was inserted into the left ventricle and approximately 1.5 mL of whole blood were collected in K2-EDTA tubes and stored on ice. Within 60 min after blood draw, samples were centrifuged at 1500× g for 15 min and the […] was immediately stored at −80 °C. At the day of quantification, samples were gently thawed overnight at 4 °C and the level of triglycerides (TG), total cholesterol, high-density cholesterol (HDL), and non-HDL were determined using a Cobas 8000 modular analyzer (Roche)."}, "[3]": {"set-up": "method as in PMID 16617452", "details": "newborn rats; cited from earlier work"}, "[4]": {"assay": "lung tissue binding by equilibrium dialysis", "type": "in vitro ADME", "details": "preterm rabbit lung homogenate, 4 h, 37 °C", "experimental": "In vitro lung tissue binding was also determined by equilibrium dialysis as described above. Preterm rabbit lungs (New Zealand White, BIOIVT) were homogenized using a Precellys tissue homogenizer (Bertin instruments, Montigny-le-Bretonneux, France). Precellys lysing vials (CK28-R, Bertin instruments) were filled with lung and buffer according to the following proportion: 1 g of tissue and 5 mL of ice-cold PBS (dilution 1:6). At the end of the homogenization process, a pool of lung homogenate was prepared mixing equal amount of homogenate from three different donors. Test compounds and the positive control were diluted in the pooled lung homogenate to a final concentration of […] and then dispensed into the red chamber of the RED device inserts. PBS was dispensed into the other side. Upon completion of 4 h of incubation (37 °C under shaking), equal aliquots were removed from each chamber and matrix matched with even volumes of lung homogenate or buffer for LC-MS/MS analyses.\nFree and Bound percentages of the compounds were calculated as follows:(3) %Free=Area buffer sample/Area lung homogenate sample×100 (4) % Bound=100−%Free"}, "PPARγ": {"system": "PPARγ", "assay": "target engagement (TE%) evaluation from unbound plasma concentration and EC50", "experimental": "In a subsequent experimental session, we investigated the pulmonary outcomes of a higher intraperitoneal RGZ dose. To define the RGZ dose, a target engagement (TE%) evaluation was performed based on the unbound plasma and EC50 values for RGZ previously determined in vitro. […] TE% at each time point was calculated according to the following formula."}, "[5]": {"system": "premature rabbit pups with intraventricular hemorrhage", "set-up": "method as in PMID 34462350", "details": "twice-daily 0.1 mg/kg; cited from earlier work"}, "[6]": {"set-up": "method as in PMID 20729387", "details": "newborn mice, mothers received two antenatal doses of 3 mg/kg 48 and 72 h prior to delivery; cited from earlier work"}, "[7]": {"details": "daily 1 mg/kg, PND 7, vs vehicle, p < 0.01"}}, "note": "Where two headings read alike, the source gives them in different places."}
{"smiles": "CN(CCOc1ccc(CC2SC(=O)NC2=O)cc1)c1ccccn1", "note": "(stereo not drawn) [RGZ, rosiglitazone]", "values": [{"measurement": "RAC and alveolar septal thickness", "setting": "[1]", "value": "significantly improved"}, {"measurement": "serum non-HDL", "setting": "[2]; [7]", "value": "significantly increased"}, {"measurement": "serum total cholesterol", "setting": "[2]; [7]", "value": "significantly increased"}, {"measurement": "serum triglycerides", "setting": "[2]; daily 1 mg/kg, PND 7, vs vehicle, p < 0.05", "value": "significantly increased"}, {"measurement": "serum lipids", "setting": "[2]; daily 10 mg/kg, PND 7, p < 0.0001 for all lipids", "value": "aberrant modulation"}, {"measurement": "plasma levels reported to protect the lungs from hyperoxia", "setting": "[3]", "value": 350, "unit": "ng/mL"}, {"measurement": "Lung Tissue Binding (%)", "setting": "[4]", "value": "94.2 ± 0.7", "unit": "%"}, {"measurement": "target engagement (TE%)", "setting": "PPARγ", "value": "40–60%"}, {"measurement": "target engagement (TE%)", "setting": "PPARγ; linear scaling model to intraperitoneal 10 mg/kg", "value": "> 90", "unit": "%"}, {"measurement": "target engagement (TE%)", "setting": "PPARγ; listed as rosiglitazone", "value": 50, "unit": "%"}, {"measurement": "myelination and neurological recovery", "setting": "[5]", "value": "improved"}, {"measurement": "plasma levels", "setting": "[6]", "value": 350, "unit": "ng/mL"}]}
